Key:
[1] = biological target: T1, ATPase family AAA domain-containing protein 2B (Homo sapiens, UniProt Q9ULI0); assay: Binding affinity to human partial length ATAD2B (Q955 to R1082 residues) expressed in bacterial expression system by BROMOscan assay
T1 sequence (Q9ULI0 whole entry): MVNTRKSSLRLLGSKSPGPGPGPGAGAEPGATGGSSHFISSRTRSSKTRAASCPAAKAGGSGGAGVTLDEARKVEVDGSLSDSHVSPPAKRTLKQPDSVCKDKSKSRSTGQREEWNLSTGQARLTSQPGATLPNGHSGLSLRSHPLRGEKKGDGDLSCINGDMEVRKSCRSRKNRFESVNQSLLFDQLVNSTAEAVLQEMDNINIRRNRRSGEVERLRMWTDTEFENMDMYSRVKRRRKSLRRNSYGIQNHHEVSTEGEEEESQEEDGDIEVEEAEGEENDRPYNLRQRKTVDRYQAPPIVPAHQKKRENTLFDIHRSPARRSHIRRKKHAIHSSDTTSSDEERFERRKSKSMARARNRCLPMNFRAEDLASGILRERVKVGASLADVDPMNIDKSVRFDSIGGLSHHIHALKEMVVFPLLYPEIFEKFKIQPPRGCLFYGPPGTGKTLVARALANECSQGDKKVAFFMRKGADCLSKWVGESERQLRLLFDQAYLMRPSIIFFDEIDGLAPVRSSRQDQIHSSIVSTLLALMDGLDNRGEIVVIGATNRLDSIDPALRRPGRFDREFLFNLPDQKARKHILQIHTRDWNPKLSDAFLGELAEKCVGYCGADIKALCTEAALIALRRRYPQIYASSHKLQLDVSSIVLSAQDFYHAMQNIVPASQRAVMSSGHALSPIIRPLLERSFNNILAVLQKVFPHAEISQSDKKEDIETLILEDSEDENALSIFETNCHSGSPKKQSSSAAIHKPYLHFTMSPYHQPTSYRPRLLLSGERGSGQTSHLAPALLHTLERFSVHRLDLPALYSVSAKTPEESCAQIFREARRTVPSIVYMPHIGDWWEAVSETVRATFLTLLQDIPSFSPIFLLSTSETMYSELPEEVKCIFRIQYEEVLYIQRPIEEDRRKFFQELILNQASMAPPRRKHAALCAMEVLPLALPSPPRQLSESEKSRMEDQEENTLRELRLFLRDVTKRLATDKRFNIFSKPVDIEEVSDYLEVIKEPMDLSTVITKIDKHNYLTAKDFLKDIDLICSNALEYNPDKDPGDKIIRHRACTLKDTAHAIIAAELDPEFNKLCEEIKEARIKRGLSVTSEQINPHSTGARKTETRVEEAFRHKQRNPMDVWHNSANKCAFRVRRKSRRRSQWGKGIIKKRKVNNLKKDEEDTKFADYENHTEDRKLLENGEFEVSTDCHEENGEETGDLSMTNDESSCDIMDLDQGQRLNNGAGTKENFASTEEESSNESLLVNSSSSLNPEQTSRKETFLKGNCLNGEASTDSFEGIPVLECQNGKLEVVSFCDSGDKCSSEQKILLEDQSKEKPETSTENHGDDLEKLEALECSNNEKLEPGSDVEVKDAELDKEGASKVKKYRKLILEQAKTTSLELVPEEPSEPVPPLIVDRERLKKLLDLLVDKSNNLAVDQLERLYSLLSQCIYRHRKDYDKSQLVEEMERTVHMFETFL

[2] = biological target: Chromatin remodeling regulator CECR2 (Homo sapiens, UniProt Q9BXF3); assay: Inhibition of BSP-BODIPY binding to Nanoluc-tagged CECR2 (unknown origin) expressed in HEK293 cells measured after 4 to 6 hrs by NanoBRET assay; format: cell-based
Chain of Chromatin remodeling regulator CECR2 (Q9BXF3 whole entry): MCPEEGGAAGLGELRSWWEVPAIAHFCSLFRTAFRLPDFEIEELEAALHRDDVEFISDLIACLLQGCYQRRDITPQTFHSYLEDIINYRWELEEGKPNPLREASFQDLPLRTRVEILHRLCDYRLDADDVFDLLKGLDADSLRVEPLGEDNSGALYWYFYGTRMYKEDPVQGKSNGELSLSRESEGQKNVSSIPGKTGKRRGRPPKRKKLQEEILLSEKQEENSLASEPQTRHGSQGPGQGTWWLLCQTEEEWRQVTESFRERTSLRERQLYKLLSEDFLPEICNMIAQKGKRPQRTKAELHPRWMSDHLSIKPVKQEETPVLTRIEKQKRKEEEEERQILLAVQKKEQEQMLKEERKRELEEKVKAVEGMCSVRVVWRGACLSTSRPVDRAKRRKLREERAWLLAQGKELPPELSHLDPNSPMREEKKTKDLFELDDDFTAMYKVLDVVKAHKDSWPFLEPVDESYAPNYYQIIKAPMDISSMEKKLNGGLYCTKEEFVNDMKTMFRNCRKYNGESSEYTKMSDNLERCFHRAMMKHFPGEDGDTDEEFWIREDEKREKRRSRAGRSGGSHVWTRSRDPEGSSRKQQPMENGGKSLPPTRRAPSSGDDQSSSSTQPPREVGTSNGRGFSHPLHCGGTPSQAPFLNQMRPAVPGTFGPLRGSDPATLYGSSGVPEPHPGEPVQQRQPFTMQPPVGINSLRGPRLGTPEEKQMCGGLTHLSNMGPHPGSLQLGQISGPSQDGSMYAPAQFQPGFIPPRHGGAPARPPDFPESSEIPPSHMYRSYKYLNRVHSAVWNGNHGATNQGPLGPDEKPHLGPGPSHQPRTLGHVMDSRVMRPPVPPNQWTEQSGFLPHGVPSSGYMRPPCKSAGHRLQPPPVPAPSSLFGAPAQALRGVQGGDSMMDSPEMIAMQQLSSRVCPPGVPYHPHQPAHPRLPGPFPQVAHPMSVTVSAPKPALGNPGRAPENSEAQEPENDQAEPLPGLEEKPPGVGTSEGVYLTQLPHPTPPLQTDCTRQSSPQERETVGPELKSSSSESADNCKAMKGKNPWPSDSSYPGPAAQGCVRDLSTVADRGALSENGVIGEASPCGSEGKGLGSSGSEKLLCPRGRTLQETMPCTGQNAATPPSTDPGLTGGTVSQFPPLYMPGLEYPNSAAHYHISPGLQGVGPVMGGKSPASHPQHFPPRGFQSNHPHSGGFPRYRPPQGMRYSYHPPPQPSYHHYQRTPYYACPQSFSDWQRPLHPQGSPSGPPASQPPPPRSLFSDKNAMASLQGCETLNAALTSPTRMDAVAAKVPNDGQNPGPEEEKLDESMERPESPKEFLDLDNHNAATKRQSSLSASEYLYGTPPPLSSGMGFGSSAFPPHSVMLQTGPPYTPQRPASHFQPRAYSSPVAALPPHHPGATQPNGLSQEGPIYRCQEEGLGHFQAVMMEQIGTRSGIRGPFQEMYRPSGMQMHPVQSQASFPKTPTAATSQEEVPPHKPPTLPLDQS

In the case of `C[C@H]1CCN(S(=O)(=O)c2cc(NC(=O)CN3C(=O)N[C@@](C)(C4CC4)C3=O)ccc2Br)C1`, the Kd [1] is reported as 20 nM and the IC50 [2] is reported as 251 nM.

Reference: ChEMBL document CHEMBL4354881, “Optimization of Potent ATAD2 and CECR2 Bromodomain Inhibitors with an Atypical Binding Mode” (J Med Chem, 2020)
